Measured values taken from patent US6696480B2, “Upregulation of type III endothelial cell nitric oxide synthase by agents that disrupt actin cytoskeletal organization” (Brigham and Women's Hospital, Inc., priority 1998, dated 2004).
Like-named read-outs stand apart in the source and are kept apart here.

Key:
ecNOS mRNA = assay: Northern blotting of ecNOS steady-state mRNA in endothelial cells; assay type: cell-based, human; parameters: ecNOS mRNA levels increased to / ecNOS mRNA levels, % of basal levels / effect on basal ecNOS mRNA levels: unit of the concentration uncertain; conditions: for effect on ecNOS expression (mRNA): 24 hours (FIGS. 9, 11), anaphicoline data not shown
Procedure: (§1) Equal amounts of total RNA (10-20 mg) were separated by 1.2% formaldehyde-agarose gel electrophoresis and transferred overnight onto Hybond nylon membranes. […] All Northern blots were subjected to stringent washing conditions (0.2× SSC/0.1% SDS at 65° C.) prior to autoradiography. RNA loading was determined by rehybridization with human GAPDH probe.

RhoB [1] = assay: Rho membrane translocation, immunoblot of membrane and cytosol, RhoB; assay type: cell-based, human; conditions: mevastatin
Procedure: (§2) Autoradiography was performed as described earlier.

RhoA [2] = assay: Rho GTP-binding activity, immunoprecipitation of [35S]GTP S-labeled RhoA; assay type: cell-based, human; parameters: RhoA GTP-binding activity: dose or concentration left out as unconfirmed
Procedure: (§3) The Rho GTP-binding activity was determined by immunoprecipitation of [^35 S]GTP S-labeled Rho. Briefly, membrane and cytosolic proteins were isolated as previously desribed (Liao, J K and Homcy, C J, J Clin Invest, 1993, 92:2168-2172). Proteins (20 mg) from control and treated endothelial cells were incubated for 30 min at 37° C. in a buffer containing [35 S]GTP S (20 nM), GTP (2 mM), MgCl22 (5 mM), EGTA (0.1 mM), NaCl (50 mM), creatinine phosphate (4 mM), phosphocreatinine kinase (5 units), ATP (0.1 mM), dithiothreitol (1 mM), leupeptin ([…]), aprotinin (50 mg/ml), and phenylmethanesulfonyl fluoride (PMSF, 2 mM). The assay was terminated with excess unlabeled GTP S (100 mM).
(§4) Samples were then resuspended in 100 ml of immunopricipitation buffer containing Triton-X (1%), SDS (0.1%), NaCl (150 mM), EDTA (5 mM), Tris-HCl (25 mM, pH 7.4), leupeptin (10 mg/ml), aprotinin (10 mg/ml), and PMSF (2 mM). […]
(§5) The pellets were washed four times in a buffer containing HEPES (50 mM, pH 7.4), NaF (100 mM), sodium phosphate (50 mM), NaCl (100 mM), Triton X-100 (1%), and SDS (0.1%). The final pellet containing the immunoprecipitated [35 S]GTP S-labeled Rho proteins was counted in a liquid scintillation counter (LS 1800, Beckman Instruments, Inc. Fullerton, Calif.). Nonspecific activity was determined in the presence of excess unlabeled GTP S (100 mM).

RhoB [3] = assay: Rho GTP-binding activity, immunoprecipitation of [35S]GTP S-labeled RhoB; assay type: cell-based, human; parameters: RhoB GTP-binding activity: dose or concentration left out as unconfirmed
Procedure: as §3, §4, §5

RhoA [4] = assay: Rho membrane translocation, immunoblot of membrane and cytosol, RhoA; assay type: cell-based, human; conditions: mevastatin
Procedure: as §2

ecNOS protein [5] = assay: Overexpression of Rho mutants, immunoblot of ecNOS protein; assay type: cell-based, bovine; conditions: about 24 h after transfection
Procedure: For transfection studies, bovine rather than human endothelial cells were used because of their higher transfection efficiency by the calcium-phosphate precipitation method (12% vs <4%) (15). Bovine endothelial cells (60-70% confluent) were transfected with 15 mg of the indicated cDNAs: the insertless vector (pcDNA3), pcDNA3-c-myc-wtRhoA (wildtype RhoA), and pcDNA3-c-myc-N 19RhoA (dominant-negative RhoA mutant) (Gebbink, M et al., J Cell Biol, 1997, 137:1603-1613). As an internal control for transfection efficiency, pCMV. b-Gal plasmid (5 mg) was co-transfected. Preliminary results using b-galactosidase staining indicate that cellular transfection efficiency was approximately 10% to 14%. The b-galactosidase activity was determined by a chemiluminescence assay (Dual-Light, Tropix, Bedford, Mass.) using a Berthold L9501 luminometer. Approximately 24 h after transfection, cells were harvested for immunoblot analyses of ecNOS expression. The ecNOS protein levels were then standardized to the corresponding levels of transfected RhoA expression as determined by antisera to the corresponding c-myc tag.

ecNOS = ecNOS activity, LNMA-inhibitable nitrite production (modified nitrite assay); assay type: cell-based, human; conditions: for nitrite production: L-mevalonate
ecNOS protein [6] = tested on: ecNOS protein; parameters: ecNOS protein levels: dose or concentration left out as unconfirmed
[7] = tested on: G-protein as and b-actin mRNA; assay: Northern blotting of G-protein as and b-actin mRNA (selectivity); assay type: cell-based, human; conditions: normoxic or hypoxic conditions
Procedure: as §1

[8] = tested on: cerebral ischemia, left middle cerebral artery (MCA) occlusion; assay: Murine model of cerebral vascular ischemia (MCA occlusion); assay type: in vivo, SV-129 mice; conditions: lovastatin, at higher relative concentrations (data not shown)
From the text: Ischemia was produced by occluding the left middle cerebral artery (MCA) with a coated 8.0 nylon monofilament under anesthesia as described (Huang, Z et al., J Cereb Blood Flow Metab, 1996, 16:981-987, Huang, Z et al., Science, 1994, 265:1883-1885, Hara, H et al., J Cereb Blood Flow Metab, 1997, 1:515-526). Arterial blood pressure, heart rate, arterial oxygen pressure, and partial pressure of carbon dioxide were monitored as described (Huang, Z et al., J Cereb Blood Flow Metab, 1996, 16:981-987, Huang, Z et al., Science, 1994, 265:1883-1885, Hara, H et al., J Cereb Blood Flow Metab, 1997, 1:515-526). The filaments were withdrawn after 2 hours and after 24 h, mice were either sacrificed or tested for neurological deficits using a well-established, standardized, observer-blinded protocol as described (Huang, Z et al., J Cereb Blood Flow Metab, 1996, 16:981-987, Huang, Z et al., Science, 1994, 265:1883-1885, Hara, H et al., J Cereb Blood Flow Metab, 1997, 1:515-526). The motor deficit score range from 0 (no deficit) to 2 (complete deficit).
Brains were divided into five coronal 2-mm sections using a mouse brain matrix (RBM-200C, Activated Systems, Ann Arbor, Mich., USA). Infarction volume was quantitated with an image analysis system (M4, St. Catharines, Ontario, Canada) on 2% 2,3,5-triphenyltetrazolium chloride stained 2-mm slices. The levels of serum cholesterol, creatinine and transaminases were determined by the Tufts University Veterinary Diagnostic Laboratory (Grafton, Mass.).

[9] = mevastatin alone or in combination with GGPP or FPP

From the text for human endothelial cells: Confluent endothelial cells were used for all treatment conditions.

CC[C@H](C)C(=O)O[C@H]1CCC=C2C=C[C@H](C)[C@H](CC[C@@H]3C[C@@H](O)CC(=O)O3)[C@H]21 [mevastatin, Mevastatin]
concentrations that produce cytotoxicity (human endothelial cells): > 50 µM
observable adverse effects on cellular morphology / viability (human endothelial cells): no observable adverse effects
potency on a molar basis compared to simvastatin (ecNOS mRNA; upregulation of ecNOS): approximately ten times less potent
potency on a molar basis compared with lovastatin (ecNOS mRNA; upregulation of ecNOS): equally potent
decrease in membrane localization of RhoB (RhoB [1]): 78±6%
increase in RhoB in the cytosol (RhoB [1]): 87±7%
effect on cytosolic RhoA activity (RhoA [2]; [9]): not affected
effect on cytosolic RhoB activity (RhoB [3]; [9]): not affected
decrease in membrane localization of RhoA (RhoA [4]): 60±5%
increase in RhoA in the cytosol (RhoA [4]): 65±4%

wtRhoA: c-myc-tagged wildtype RhoA overexpressed by transfection
reduction of basal ecNOS protein expression (ecNOS protein [5]): 15±4%

L-mevalonate
observable adverse effects on cellular morphology / viability (human endothelial cells): no observable adverse effects
nitrite production (ecNOS): 8.6±2.9 nmol/500,000 cells/24 h
nitrite production (ecNOS; 3% O2): 9.6±1.3 nmol/500,000 cells/24 h
effect of co-treatment on upregulation of ecNOS expression by simvastatin alone (ecNOS protein [6]; L-mevalonate (100) + simvastatin (1)): completely reversed
effect on basal ecNOS expression (ecNOS protein [6]; L-mevalonate alone (100)): did not have any appreciable effects
ecNOS protein levels (ecNOS protein [6]; L-mevalonic acid (400) co-treatment with simvastatin, hypoxia, 48 h): 35±2.4%
ecNOS protein levels (ecNOS protein [6]; L-mevalonic acid alone, cells exposed to hypoxia): 25±3.9%

N19RhoA
increase in ecNOS protein levels (ecNOS protein [5]): 150±5%

C3 transferase
observable adverse effects on cellular morphology / viability (human endothelial cells): no observable adverse effects
nitrite accumulation (ecNOS): 31±2.1 nmol/500,000 cells/24 hours
increase in nitrite accumulation (ecNOS; 24 h): 3 fold
increases in ecNOS expression at lower concentrations (ecNOS protein [6]): correspondingly smaller increases
ecNOS protein levels augmented by (ecNOS protein [6]; 48 h): 250±10%

CC[C@H](C)C(=O)O[C@H]1C[C@@H](C)C=C2C=C[C@H](C)[C@H](CC[C@@H]3C[C@@H](O)CC(=O)O3)[C@H]21 [lovastatin]
increase in ecNOS mRNA levels compared to ox-LDL alone (ecNOS mRNA; co-treatment with ox-LDL, lovastatin 10 mmol/L, 24 h): 3.6 fold
ecNOS message increased to (ecNOS mRNA; lovastatin (10 μM) alone): 410±21%
ecNOS message increased to (ecNOS mRNA; lovastatin (10 μM) under hypoxia): 350±27%
increase in ecNOS mRNA levels compared to untreated cells (ecNOS mRNA; lovastatin alone): 36%
increase in ecNOS mRNA level compared to untreated cells (ecNOS mRNA; ox-LDL + lovastatin 10 mmol/L, 24 h): 40±9%
change in G-protein as and b-actin mRNA levels [7]: Neither simvastatin nor lovastatin caused any significant change
concentration giving similar findings on ecNOS activity, compared to that of simvastatin (ecNOS; normoxia and hypoxia): 10 fold higher
reduction of cerebral infarct size [8]: also occurred with lovastatin treatment
effect on ecNOS expression (ecNOS protein [6]; not chemically-activated statin (10)): no effect

anaphicoline
effect on ecNOS expression (mRNA) (ecNOS mRNA): do not increase ecNOS expression

C=C1[C@@H](C)[C@H]2[C@H](Cc3ccccc3)NC(=O)[C@]23[C@H](OC(C)=O)/C=C/[C@@](C)(O)C(=O)[C@@H](C)C/C=C/[C@H]3[C@@H]1O [Cytochalasin D]
nonspecific cytotoxicity as cause of increased ecNOS expression (human endothelial cells): does not result from nonspecific cytotoxicity
effect on ecNOS expression (mRNA) (ecNOS mRNA): upregulation of ecNOS

COC(=O)Nc1nc2cc(C(=O)c3cccs3)ccc2[nH]1 [nocodazole, Methyl-(5-[2-thienylcarbonyl]-1H-benzimidazol-2-yl)carbamate]
effect on ecNOS expression (mRNA) (ecNOS mRNA): do not increase ecNOS expression

CC(C)=CCC/C(C)=C/CC/C(C)=C/CC/C(C)=C/COP(=O)(O)OP(=O)(O)O [GGPP, geranylgeranylpyrophosphate]
observable adverse effects on cellular morphology / viability (human endothelial cells): no observable adverse effects
effect on basal ecNOS mRNA levels (ecNOS mRNA; GGPP (10 (unit uncertain)) alone): did not significantly affect
RhoA GTP-binding activity (RhoA [2]): 4.1 ± 0.3 fmol/mg/min

CC(=O)C(C)=NO [BDM, 2,3-butanedione 2-monoxime]
nonspecific cytotoxicity as cause of increased ecNOS expression (human endothelial cells): does not result from nonspecific cytotoxicity

CC(C)=CCC/C(C)=C/CC/C(C)=C/COP(=O)(O)OP(=O)(O)O [FPP, farnesylpyrophosphate]
observable adverse effects on cellular morphology / viability (human endothelial cells): no observable adverse effects
RhoB GTP-binding activity (RhoB [3]): 2.7 ± 0.5 fmol/mg/min
